Results from patent US20180066231A1, “MESENCHYMAL STEM CELL CULTURE MEDIUM, METHODS FOR CULTURING MESENCHYMAL STEM CELLS, AND MESENCHYMAL STEM CELLS” (ROHTO PHARMACEUTICAL CO., LTD., priority 2015, published 2018).

Test system: Umbilical cord derived mesenchymal stem cells (UC-MSC)
Test: Test 4: induction of oxidative stress resistance (Rotenone treatment, nucleus count)
Assay type: cell-based
Conditions: Rotenone 0 nM, 100 nM, 200 nM, 500 nM, 1 μM; after 48 hours; FIG. 11
Method: (UC-MSC; Umbilical Cord derived Mesenchymal Stem Cells Wharton's Jelly (HMSC-WJ), FC-0020, LIFELINE CELL TECHNOLOGY Co., Ltd.; UC-MSC; Umbilical Cord derived Mesenchymal Stem Cells ScienCell Research Laboratories, Inc; and Umbilical Cord derived Mesenchymal Stem Cells ATCC) were conditioned with a recommended medium of each entity at 37° C. under 5% of CO2, and they were exchanged with the recommended medium of each entity or the medium of Example 1 (0.3-1×10^5 cells/well; 6 well plate). The passage was carried out every 2 to 3 days and those cells were treated with Rotenone of the following concentrations (0 nM, 100 nM, 200 nM, 500 nM, 1 μM). After 48 hours, these cells were stained with Hoechest33258 and the number of nucleus was counted using ImageXpress (Molecular Devices, LLC.).

C=C(C)[C@H]1Cc2c(ccc3c2O[C@@H]2COc4cc(OC)c(OC)cc4[C@@H]2C3=O)O1 [Rotenone]
cell number of UC-MSC: decreases in a concentration dependent manner
